# Measured values: patent US6242445A, “Benzimidazole derivative” (Kureha Chemical Industry Co., Ltd., priority 1998, dated 2001)
# Key:
# [1] = target: T1, angiotensin II receptor subtype 1 (AT1) (Oryctolagus cuniculus, UniProt P34976); experiment: Binding assay, angiotensin II receptor subtype 1 (AT1); parameters: species or system rabbits
# T1 construct: from adrenal glands in rabbits; from tissue; host or cells: adrenal glands of rabbits
# T1 sequence (P34976 1-359): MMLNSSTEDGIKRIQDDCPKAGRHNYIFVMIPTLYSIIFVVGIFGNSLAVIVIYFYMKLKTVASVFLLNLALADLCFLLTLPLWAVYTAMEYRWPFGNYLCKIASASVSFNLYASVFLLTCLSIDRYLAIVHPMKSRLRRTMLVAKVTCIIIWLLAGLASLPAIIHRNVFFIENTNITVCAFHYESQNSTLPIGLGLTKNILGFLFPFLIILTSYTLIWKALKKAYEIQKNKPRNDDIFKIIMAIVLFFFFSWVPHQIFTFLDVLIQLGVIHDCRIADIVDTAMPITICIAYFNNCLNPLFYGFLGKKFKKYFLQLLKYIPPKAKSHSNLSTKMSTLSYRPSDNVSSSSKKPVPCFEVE
# Procedure: In this Example, a binding assay was carried out. That is, the affinity to the angiotensin II receptor subtype 1 orsubtype 2 was evaluated in accordance with the method described in Biochem. Pharmacol., 33, 4057-4062 (1984).
# Specifically, the measurement of the total binding in the presence of each drug was performed as follows:
# A mixture (final volume=0.25 ml) of a drug in a given concentration (the drug was dissolved in DMSO, and diluted to a double volume with a buffer attached to a drug discovery system to prepare a sample for the assay; 0.025 ml), a tracer (0.025 ml), and receptors (0.2 ml) was incubated [in the case of the angiotensin II receptor subtype 1 (AT1), at room temperature for 3 hours, and in the case of the subtype 2 (AT2), at 37° C. for 1 hour]. Then, the reaction mixture was filtered with suction (a GF/C filter was used in AT1, and a GF/B filter was used in AT2). The filter papers after filtration with suction (the tracer bound to the receptors) were counted by a γ-well counter (ARC-500, Aloka). The non-specific bindings were measured by repeating the above method, except that a large excess amount of a displacer was added. The specific binding of the drug in the given concentration was calculated by subtracting the non-specific binding from the total binding, respectively.
# tracer: ^3 H-angiotensin II
# [2] = system: kidney disease model rats; experiment: Survival time of kidney diseased animals; assay type: in vivo, Sprague-Dawley female rats; conditions: for survival time / Average survival time: 20 mg/kg/day; for Average survival time: observation period eight weeks (upper limit), control 5.0; for effect on survival compared with reference substance: vs DuP753
# Procedure: In this Example, an action to lower blood pressure was evaluated. That is, each of 2-ethoxy-1-[[4'- (2'-N,N-dimethylamino-ethoxycarbonyl) phenyl]methyl]-1H-benzimidazole-6-carboxylic acid morpholide (Compound No. 13) prepared in Example 6, 2-ethoxy-1-[[4'-(2"-morpholinoethoxycarbonyl)-phenyl]methyl]-1H-benzimidazole-6-carboxylic acid piperidinamide (Compound No. 57) prepared in Example 28, or the reference substance was forcibly orally administered to kidney disease model rats, and the action of lowering the blood pressure was observed. The kidney disease model rats were prepared by a ligature of branches of renal artery in accordance with a conventional method. Namely, the left hilum renalis of Sprague-Dawley female rats was exposed under anesthesia, and one of four secondary branches of the renal artery was left unligated, while the remaining three branches were ligated, respectively. After a week, the hilum renalis (artery, vein, and ureter) of the right kidney were further ligated to thereby prepare rats whose renal function was lowered to approximately 1/8 of the normal function. Each group consisted of eight rats. The drugs to be tested (20 mg/kg) were administered to each administering group, and only water was administered to a control group. Two days after the administration, the systolic blood pressure was measured by the tail cuff method using a blood pressure measuring apparatus (UR^5000; Ueda).
# In this Example, an action to survival time of kidney diseased animals was evaluated. As compounds to be examined, 2-ethoxy-1-[[4'-(2"-N,N-dimethylamino-ethoxycarbonyl)-phenyl]methyl]-1H-benzimidazole-6-carboxylic acid morpholide (Compound No. 13) prepared in Example 6, and 2-ethoxy-1-[[4'-(2"-morpholinoethoxycarbonyl)phenyl]methyl]-1H-benzimidazole-6-carboxylic acid piperidinamide (Compound No. 57) prepared in Example 28 were used.
# The kidney disease model rats were prepared as in Example 38. Fifteen groups (8 rats per group) were prepared in a manner such that there was no major difference between the groups in the serum creatinine value and the blood urea nitrogen value indicating renal function. The rats in each group were allowed to freely take up food and water. […] To the rats in the control group, only water was forcibly orally administered every day. If kidney diseases are aggravated, the rat will die of uremia. Thus, the survival time was observed as a comprehensive indication of the improvement of the effect on the kidney diseases. The observation period was eight weeks. Thus if all rats survived, the average survival time is eight weeks, and is an upper limit.
# [3] = system: kidney disease model rats; experiment: Action to kidney diseases, renal function indicatory values; assay type: in vivo, Sprague-Dawley female rats; conditions: for Creatinine clearance / blood urea nitrogen value / serum creatinine value / Creatinine / Blood urea nitrogen: 20 mg/kg/day, two weeks; for Creatinine / Blood urea nitrogen: serum; for Creatinine: control 2.0; for Blood urea nitrogen: control 100; for effects on renal function compared with reference substance: vs DuP753
# Procedure: The kidney disease model rats were prepared by a ligature of branches of renal artery in accordance with a conventional method. Namely, the left hilum renalis of Sprague-Dawley female rats was exposed under anesthesia, and one of four secondary branches of the renal artery was left unligated, while the remaining three branches were ligated, respectively. After a week, the hilum renalis (artery, vein, and ureter) of the right kidney were further ligated to thereby prepare rats whose renal function was lowered to approximately 1/8 of the normal function. Each group consisted of eight rats. The drugs to be tested (20 mg/kg) were administered to each administering group, and only water was administered to a control group. Two days after the administration, the systolic blood pressure was measured by the tail cuff method using a blood pressure measuring apparatus (UR^5000; Ueda).
# In this Example, an action to kidney diseases was evaluated on the basis of a renal function indicatory value.
# Fifteen groups (8 rats per group) were prepared in a manner such that there was no major difference between the groups in the serum creatinine value and the blood urea nitrogen value indicating renal function. The rats in each group were allowed to freely take up food and water. […] To the rats in the control group, only water was forcibly orally administered every day. After two weeks, 0.2 ml of blood was collected from the carotid artery of the rats under anesthesia, and centrifuged to obtain serum. Using 25 μl of the serum, the serum creatinine (Scr) was measured by a creatinine analytical instrument (Beckman). Using 10 μl of the serum, the blood urea nitrogen (BUN) was measured by a BUN analytical instrument (Beckman). The creatinine clearance was evaluated as follows:
# After the serum creatinine measurement, rats were placed in urinary metabolic cages for 24 hours to collect urine. A urinary creatine concentration (Ucr) was measured by a creatinine analytical instrument, and a total volume of urination (Uvol) was also measured. The creatinine clearance (CCr) was calculated by the following formula: [formula]
# In the above formula, the unit of "Ucr" and "Scr" is "mg/ml" and the unit of "Uvol" is "ml".
Structure (SMILES),inhibitory effect / binding activity / antagonism at angiotensin II receptor [1],survival time [2],Average survival time [2] [weeks],effect on survival compared with reference substance [2],Creatinine clearance ([3]; control 0.22) [mL/min],Creatinine clearance ([3]; vs control),blood urea nitrogen value ([3]; vs control),serum creatinine value ([3]; vs control),Creatinine [3] [mg/dL],Blood urea nitrogen [3] [mg/dL],effects on renal function compared with reference substance [3]
"CCOc1nc2ccc(C(=O)N3CCOCC3)cc2n1Cc1ccc(C(=O)OCCN(C)C)cc1 [Compound No. 13, 2-ethoxy-1-[[4'-(2""-N,N-dimethylaminoethoxycarbonyl)phenyl]methyl]-1H-benzimidazole-6-carboxylic acid morpholide]",do not substantially exhibit a conventional angiotensin II receptor antagonism,clearly prolonged the survival time,7.5,comparable or superior to that of the reference substance,0.35,clearly improved,clearly became lower values,clearly became lower values,1.5,75,comparable to those of the reference substance
"CCOc1nc2ccc(C(=O)N3CCCCC3)cc2n1Cc1ccc(C(=O)OCCN2CCOCC2)cc1 [Compound No. 57, 2-ethoxy-1-[[4'-(2""-morpholinoethoxycarbonyl)phenyl]methyl]-1H-benzimidazole-6-carboxylic acid piperidinamide]",do not substantially exhibit a conventional angiotensin II receptor antagonism,clearly prolonged the survival time,7.5,comparable or superior to that of the reference substance,0.33,clearly improved,clearly became lower values,clearly became lower values,1.5,72,comparable to those of the reference substance
